Where two headings read alike, the source gives them in different places.
Columns and labels:
MMP-8 = MMP-8 (Homo sapiens, UniProt P22894); experiment: Selectivity towards different MMPs: MMP-8; format: biochemical; conditions: Table 2
MMP-1 = target: T1, MMP-1 (Homo sapiens, UniProt P03956); experiment: Selectivity towards different MMPs: MMP-1; format: biochemical; conditions: Table 2
T1 sequence (P03956 100-469): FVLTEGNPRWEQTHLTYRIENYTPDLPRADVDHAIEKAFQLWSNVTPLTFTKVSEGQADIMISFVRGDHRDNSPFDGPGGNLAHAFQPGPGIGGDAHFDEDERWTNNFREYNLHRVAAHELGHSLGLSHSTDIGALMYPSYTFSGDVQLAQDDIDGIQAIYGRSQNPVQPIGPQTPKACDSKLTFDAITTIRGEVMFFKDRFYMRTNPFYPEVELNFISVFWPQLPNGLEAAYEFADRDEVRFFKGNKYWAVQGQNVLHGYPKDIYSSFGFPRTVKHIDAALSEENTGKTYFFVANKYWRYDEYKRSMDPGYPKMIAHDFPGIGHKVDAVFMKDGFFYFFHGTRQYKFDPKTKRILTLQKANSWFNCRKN

MMP-3 = MMP-3 (Homo sapiens, UniProt P08254); experiment: Selectivity towards different MMPs: MMP-3; format: biochemical; conditions: Table 2
murine melanoma = experiment: Tumor growth and metastasis in vivo, murine melanoma model; design: species or system mice; conditions: for inhibition in vivo at 50 mg/kg: Mus musculus, 504 h; for oral bioavailability: values equal the PO % reduction in murine melanoma of Table 1
Text: Tumor Growth and Metastasis in Animal Models—in vivo Test
The abilities of the novel carbamoylphosphonates to inhibit the formation of metastatic lesions in vivo were examined in the murine melanoma model both by intraperitoneal (IP) and peroral (PO) administration. […] This is especially important, since oral administration is the most convenient one for the patient, especially for long term chronic treatments such as those envisaged for drugs that are the subject of this application.

cancer cells = experiment: Matrigel chemoinvasion assay (Boyden chambers); format: cell-based; conditions: 6 h, read-out: Chemoinvasion % inhibition at 50 μM
Text: Matrigel Chemoinvasion Assay
This assay measures in vitro the potency of the compounds to repress the invasiveness of cancer cells, by inhibiting the MMPs produced by them. The assay uses a reconstituted basement membrane preparation, which is similar to the natural basement membranes that the tumor cells have to cross, in order to disseminate. The compounds examined have been added to the invasion chambers at various concentrations, and the resulted invasion was compared to untreated preparations.
Description of the of the Matrigel Chemoinvasion Experiment
a) The chemoinvasion assays were performed in Boyden chambers. Matrigel (25 μg) was dried on a polycarbonated filter (PVP free, Nucleopore). Fibroblast conditioned medium (obtained from confluent NIH-3T3 cells cultured in serum free DMEM) is used as the chemoattractant. […] The chambers were incubated in a humidified incubator at 37° C. in 5% CO2/95% air atmosphere for 6 h. The cells, which traversed the Matrigel layer and attached to the lower surface of the filter, were stained with Diff Quick (American Scientific Products) and counted.
The various compounds were examined as potential inhibitors at three concentrations: 100 μM, 50 μM and 10 μM.

Endothelial cells = experiment: Endothelial cell capillary tube formation; format: cell-based; conditions: read-out: Capillary Formation Inhibition % At 50 μM
Text: Endothelial Cell Capillary Tube Formation
Some of the compounds were examined as to their potency to inhibit capillary formation, which is an in vitro model of angiogenesis, an essential step in the development of primary tumor and metastatic lesions. Endothelial cell migration to the newly formed tumor is the initial phase of angiogenesis, and is dependent on MMP expression. By using this assay that measures endothelial cell tube formation, the effects of some carbamoylphosphonates on angiogenesis at concentrations ranging from 100-5 μM were evaluated.
Description of the Endothelial Cell Capillary Tube Formation Experiment
Endothelial cells are harvested by 1 mM EDTA, and added to a Matrigel layer in a 24 well plate at 50,000 cells per well. After attachment, culture media (1 ml) is added and the plate is incubated as a monolayer culture. The plates are analyzed hourly using Hoffinan optics. This assay is used to evaluate inhibitory factors or stimulatory factors on capillary like structure formation, which may be added into the culture media.

recombinant MMP-2 = target: T2, recombinant MMP-2 (Homo sapiens, UniProt P08253); experiment: MMP inhibitory potency in vitro, succinylated-gelatin colorimetric assay; format: biochemical; conditions: for times more active on MMP-2 than its analog or isomer: 11 vs 6, 9 vs 9a, 10 vs 10a, 11 vs 11a
T2 construct: purchased
T2 sequence (P08253 110-660): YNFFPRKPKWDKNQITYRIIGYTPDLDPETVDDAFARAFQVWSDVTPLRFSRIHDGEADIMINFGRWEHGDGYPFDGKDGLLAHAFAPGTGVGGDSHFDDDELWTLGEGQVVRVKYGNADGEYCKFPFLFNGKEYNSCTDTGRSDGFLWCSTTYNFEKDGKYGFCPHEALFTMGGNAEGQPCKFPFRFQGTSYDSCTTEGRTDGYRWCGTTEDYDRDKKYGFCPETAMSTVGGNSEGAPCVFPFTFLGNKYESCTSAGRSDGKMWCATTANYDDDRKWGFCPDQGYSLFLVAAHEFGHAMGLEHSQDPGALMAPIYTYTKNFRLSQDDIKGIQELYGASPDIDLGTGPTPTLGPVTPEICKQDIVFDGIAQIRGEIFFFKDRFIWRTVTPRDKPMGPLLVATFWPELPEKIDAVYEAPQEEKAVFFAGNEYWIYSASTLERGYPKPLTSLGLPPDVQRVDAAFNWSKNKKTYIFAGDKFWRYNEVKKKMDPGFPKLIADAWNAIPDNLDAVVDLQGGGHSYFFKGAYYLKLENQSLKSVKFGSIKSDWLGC
Procedure: (§1) Determination of MMP Inhibitory Potency (IC50 Values) in vitro
(§2) The commercially available recombinant MMP-2 and MMP-9 enzymes were incubated with succinylated-gelatin at four different concentrations for 3 h. The examined compounds were added at four to six different concentrations to the recombinant enzymes and the inhibitory potencies were expressed in a colorimetric change measured by an ELISA reader. The inhibitory activity (IC50) was calculated from the kinetic data obtained.

recombinant MMP-9 = target: T3, recombinant MMP-9 (Homo sapiens, UniProt P14780); experiment: as above; format: biochemical
T3 construct: purchased
Procedure: as §1, §2

[1] = Acute in vivo toxicity in healthy mice; conditions: daily for two weeks at 50, 250 and 500 mg/kg
Text: Determination of Acute in vivo Toxicity of Representative Carbamoylphosphonates

[2] = ip, read-out: In vivo murine melanoma % reduction IP
[3] = po, read-out: In vivo murine melanoma % reduction PO

Chain of MMP-3 (P08254 100-477, species assumed): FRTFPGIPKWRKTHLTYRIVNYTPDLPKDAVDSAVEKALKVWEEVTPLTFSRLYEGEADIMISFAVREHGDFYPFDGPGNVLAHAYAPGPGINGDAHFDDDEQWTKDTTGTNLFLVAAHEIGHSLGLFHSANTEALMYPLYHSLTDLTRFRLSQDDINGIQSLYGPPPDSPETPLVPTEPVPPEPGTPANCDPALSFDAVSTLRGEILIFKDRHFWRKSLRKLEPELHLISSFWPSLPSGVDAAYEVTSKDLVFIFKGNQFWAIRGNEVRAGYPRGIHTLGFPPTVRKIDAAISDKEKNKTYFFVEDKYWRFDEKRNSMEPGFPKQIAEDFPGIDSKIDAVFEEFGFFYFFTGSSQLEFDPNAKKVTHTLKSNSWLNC
Chain of MMP-8 (P22894 101-467, species assumed): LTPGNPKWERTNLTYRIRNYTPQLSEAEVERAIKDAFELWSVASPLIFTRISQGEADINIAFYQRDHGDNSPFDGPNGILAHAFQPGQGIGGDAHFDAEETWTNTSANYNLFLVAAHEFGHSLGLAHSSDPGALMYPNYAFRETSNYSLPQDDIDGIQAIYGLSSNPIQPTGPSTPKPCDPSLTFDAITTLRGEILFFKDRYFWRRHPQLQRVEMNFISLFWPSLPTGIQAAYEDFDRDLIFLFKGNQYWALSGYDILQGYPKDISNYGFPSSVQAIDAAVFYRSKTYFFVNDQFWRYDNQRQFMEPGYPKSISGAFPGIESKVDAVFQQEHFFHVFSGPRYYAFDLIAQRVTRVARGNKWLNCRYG
T3 sequence (P14780 94-707, species assumed): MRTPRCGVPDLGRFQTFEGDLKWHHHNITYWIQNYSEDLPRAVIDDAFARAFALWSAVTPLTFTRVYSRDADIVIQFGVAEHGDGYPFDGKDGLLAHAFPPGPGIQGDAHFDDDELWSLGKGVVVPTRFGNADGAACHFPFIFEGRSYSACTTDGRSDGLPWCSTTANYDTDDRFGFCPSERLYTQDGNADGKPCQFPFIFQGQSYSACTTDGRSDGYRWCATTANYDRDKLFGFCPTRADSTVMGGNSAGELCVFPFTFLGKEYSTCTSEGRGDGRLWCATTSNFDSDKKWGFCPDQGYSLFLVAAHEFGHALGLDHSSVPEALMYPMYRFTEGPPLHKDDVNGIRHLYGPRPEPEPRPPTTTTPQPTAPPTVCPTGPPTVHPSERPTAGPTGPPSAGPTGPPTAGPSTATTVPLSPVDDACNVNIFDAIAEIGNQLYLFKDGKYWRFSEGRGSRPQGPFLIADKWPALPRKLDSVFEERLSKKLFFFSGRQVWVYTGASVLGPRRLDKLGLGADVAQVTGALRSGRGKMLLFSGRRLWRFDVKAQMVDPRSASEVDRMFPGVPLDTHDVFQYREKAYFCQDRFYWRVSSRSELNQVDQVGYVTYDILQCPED

| Structure (SMILES) | IC50 (MMP-8) [nM] | IC50 (MMP-1) [nM] | IC50 (MMP-3) [nM] | inhibition in vivo at 50 mg/kg (murine melanoma; [2]) [%] | inhibition in vivo at 50 mg/kg (murine melanoma; [3]) [%] | inhibition at 50 µM (cancer cells) [%] | melting point [°C] | inhibition at 50 µM (Endothelial cells) [%] | IC50 (recombinant MMP-2) [nM] | IC50 (recombinant MMP-9) [µM] | IC50 (recombinant MMP-2; Table 1, read-out: MMP-2 IC50) [nM] | other results |
| --- | --- | --- | --- | --- | --- | --- | --- | --- | --- | --- | --- | --- |
| O=C(N[C@@H]1C[C@@H]2CC[C@H]1C2)P(=O)(O)O (relative stereo) [Compound 10, N-[endo-2-norbornyl]carbamoylphosphonic acid] | > 100000 | > 100000 | > 100000 | 87 | 80 | 25 | 164 to 165 | 30 | 100 | > 100 | – | times more active on MMP-2 than its analog or isomer (recombinant MMP-2): 150 times; IC50 (recombinant MMP-9; read-out: MMP-9 IC50 μM, Table 2): > 100 µM |
| O=C(N[C@@H]1C[C@H]2CC[C@@H]1C2)P(=O)(O)O (relative stereo) [Compound 10a, N-[exo-2-norbornyl]carbamoylphosphonic acid] | > 100000 | 1000 | > 100000 | – | – | – | 170 to 172 | – | 15000 | > 100 | – | – |
| N[C@H]1CCCC[C@@H]1NC(=O)P(=O)(O)O (relative stereo) [Compound 11a, Trans-2-aminocyclohexylcarbamoyl phosphonic acid] | 50000 | 90000 | 25000 | – | – | – | – | – | 20000 | > 100 | – | – |
| O=C(NC1CCCC1)P(=O)(O)O [Compound 1, CyclopentylNHCOPO3H2] | – | – | – | 72 | 71 | 65 | – | 70 | – | – | 80 | toxicity [1]: toxic at 250 mg/kg and 500 mg/kg doses |
| O=P(O)(O)C(=S)NC1CCCC1 [Compound 2, CyclopentylNHCSPO3H2] | – | – | – | 56 | 70 | 70 | – | – | 70 | 50 | – | – |
| O=C(NC1CCCCC1)P(=O)(O)O [Compound 3, CyclohexylNHCOPO3H2] | – | – | – | 64 | – | 46 | – | 50 | – | – | 3000 | – |
| O=P(O)(O)C(=S)NC1CCCCC1 [Compound 4, CyclohexylNHCSPO3H2] | – | – | – | 68 | – | 50 | – | 38 | 100 | > 100 | – | – |
| O=C(NCC1CCCCC1)P(=O)(O)O [Compound 5, cyclohexylmethyl carbamoylphosphonic acid] | – | – | – | 69 | 14 | 50 | – | 53 | – | – | 200 | oral bioavailability (murine melanoma): 14%; IC50 (recombinant MMP-9; Table 1, read-out: MMP-9 IC50): 1 µM |
| NCCNC(=O)P(=O)(O)O [Compound 6, H2N(CH2)2NHCOPO3H2] | – | – | – | 57 | – | 45 | – | 43 | 800 | 2 | – | – |
| CN(C)CCNC(=O)P(=O)(O)O [Compound 7, Me2N(CH2)2NHCOPO3H2] | – | – | – | 75 | 29 | 66 | – | 75 | 30 | 20 | – | – |
| O=P(O)(O)C(=S)NCC1CCCCC1 [Compound 8, N-(Cyclohexylmethyl)thiocarbamoylphosphonic acid] | – | – | – | 80 | 80 | 70 | – | 75 | 15 | 0.015 | – | oral bioavailability (murine melanoma): improved oral bioavailability |
| C[C@@H](NC(=O)P(=O)(O)O)C1CCCCC1 [Compound 9, N—[(R)-1-Cyclohexylethyl]carbamoylphosphonic acid] | > 100000 | > 100000 | > 100000 | – | – | – | 155 to 156 | 35 | – | – | 200 | inhibition in vivo at 50 mg/kg (murine melanoma; IP, 50 mg/kg daily for 21 days, lung tumors counted, read-out: In vivo murine melanoma % reduction IP): 68%; inhibition in vivo at 50 mg/kg (murine melanoma; PO, 50 mg/kg daily for 21 days, lung tumors counted, read-out: In vivo murine melanoma % reduction PO): 90%; oral bioavailability (murine melanoma): 90%; inhibition at 50 µM (cancer cells; 50 μM, Matrigel): 33%; times more active on MMP-2 than its analog or isomer (recombinant MMP-2): five times more active; IC50 (recombinant MMP-2; Table 2, read-out: MMP-2 IC50): 200 nM; IC50 (recombinant MMP-9; Table 1, read-out: MMP-9 IC50): ≥ 100 µM; IC50 (recombinant MMP-9; Table 2, read-out: MMP-9 IC50): > 100 µM |
| C[C@H](NC(=O)P(=O)(O)O)C1CCCCC1 [Compound 9a] | > 100000 | 2000 | 100 | – | – | – | 167 to 168 | – | – | – | – | IC50 (recombinant MMP-2; Table 2, read-out: MMP-2 IC50): 1000 nM; IC50 (recombinant MMP-9; Table 2, read-out: MMP-9 IC50): 10 µM |

Source: patent US7345033B2, “Carbamoyl-and thiocarbamoyl-phosphonates and pharmaceutical compositions comprising them” (Yissum Research Development Company of the Hebrew …, priority 2003, dated 2008)
